Positions count from the first letter of the chain named.
Assays:
Type in all cases: biochemical
[1] = target: T1, MaeA (NAD+-dependent malic enzyme) (Escherichia coli, UniProt P26616); test: NAD(P)H formation at […] nm, Michaelis-Menten fit; conditions: 50 mM Tris HCl pH 7.5, 10 mM MgCl2, 30 °C, apparent
T1 construct: N-terminal His-tag (modified pET22b(+)), expressed in E. coli BL21(DE3), HisTrap purified
T1 sequence (P26616 1-565): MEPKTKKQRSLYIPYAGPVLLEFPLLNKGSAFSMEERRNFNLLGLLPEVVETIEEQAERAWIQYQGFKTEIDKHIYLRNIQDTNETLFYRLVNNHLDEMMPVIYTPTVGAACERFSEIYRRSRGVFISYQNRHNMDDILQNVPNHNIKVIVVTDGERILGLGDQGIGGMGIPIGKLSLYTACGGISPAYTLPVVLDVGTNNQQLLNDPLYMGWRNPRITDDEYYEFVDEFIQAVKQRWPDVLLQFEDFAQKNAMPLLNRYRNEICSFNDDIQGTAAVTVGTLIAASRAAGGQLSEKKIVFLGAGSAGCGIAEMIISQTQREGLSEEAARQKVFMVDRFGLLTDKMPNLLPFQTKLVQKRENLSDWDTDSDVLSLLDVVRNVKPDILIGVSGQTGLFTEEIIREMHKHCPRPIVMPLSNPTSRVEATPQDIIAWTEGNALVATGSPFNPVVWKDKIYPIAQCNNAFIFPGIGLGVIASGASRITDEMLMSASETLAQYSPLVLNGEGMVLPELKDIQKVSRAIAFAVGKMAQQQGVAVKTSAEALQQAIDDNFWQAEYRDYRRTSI

[2] = target: T2, Lpd (dihydrolipoamide dehydrogenase; lipoamide dehydrogenase) (Escherichia coli, UniProt P0A9P0, E205A); test: NAD(P)H formation at […] nm, nonlinear fit of initial rates; conditions: 100 mM Na phosphate, 100 mM KCl, 8 mM TCEP, pH 7.6, room temperature; 4 mM dihydrolipoamide; apparent
T2 construct: gene lpdA; N-terminal His-tag (modified pET22b(+)), expressed in E. coli BL21(DE3) Codon+, HisTrap and gel filtration

[3] = target: T3, Lpd (dihydrolipoamide dehydrogenase; lipoamide dehydrogenase) (Escherichia coli, UniProt P0A9P0, E205G); test: as above; conditions: 100 mM Na phosphate, 100 mM KCl, 8 mM TCEP, pH 7.6, room temperature; 4 mM dihydrolipoamide; apparent
T3 construct: gene lpdA; N-terminal His-tag (modified pET22b(+)), expressed in E. coli BL21(DE3) Codon+, HisTrap and gel filtration

[4] = target: T4, MaeA (NAD+-dependent malic enzyme) (Escherichia coli, UniProt P26616, D336N); test: NAD(P)H formation at […] nm, Michaelis-Menten fit; conditions: 50 mM Tris HCl pH 7.5, 10 mM MgCl2, 30 °C; L-malate at 6 to 10 times its KM; apparent
T4 construct: N-terminal His-tag (modified pET22b(+)), expressed in E. coli BL21(DE3), HisTrap purified
T4 sequence (P26616 1-565 D336N): T1 sequence (P26616 1-565) with D336N

[5] = target: T5, MaeA (NAD+-dependent malic enzyme) (Escherichia coli, UniProt P26616, I283N/D336A); test: NAD(P)H formation at […] nm, Michaelis-Menten fit; conditions: 50 mM Tris HCl pH 7.5, 10 mM MgCl2, 30 °C; L-malate at 6 to 10 times its KM; apparent
T5 construct: N-terminal His-tag (modified pET22b(+)), expressed in E. coli BL21(DE3), HisTrap purified
T5 sequence (P26616 1-565 I283N/D336A): T1 sequence (P26616 1-565) with I283N, D336A

[6] = target: T6, MaeA (NAD+-dependent malic enzyme) (Escherichia coli, UniProt P26616, L176V/D336N); test: NAD(P)H formation at […] nm, Michaelis-Menten fit; conditions: 50 mM Tris HCl pH 7.5, 10 mM MgCl2, 30 °C; L-malate at 6 to 10 times its KM; apparent
T6 construct: N-terminal His-tag (modified pET22b(+)), expressed in E. coli BL21(DE3), HisTrap purified
T6 sequence (P26616 1-565 L176V/D336N): T1 sequence (P26616 1-565) with L176V, D336N

[7] = target: T7, Lpd (dihydrolipoamide dehydrogenase; lipoamide dehydrogenase) (Escherichia coli, UniProt P0A9P0); test: NAD(P)H formation at […] nm, nonlinear fit of initial rates; conditions: 100 mM Na phosphate, 100 mM KCl, 8 mM TCEP, pH 7.6, room temperature, apparent
T7 construct: gene lpdA; N-terminal His-tag (modified pET22b(+)), expressed in E. coli BL21(DE3) Codon+, HisTrap and gel filtration

[8] = L-malate at 6 to 10 times its KM

T3 sequence (P0A9P0 2-474 E205G): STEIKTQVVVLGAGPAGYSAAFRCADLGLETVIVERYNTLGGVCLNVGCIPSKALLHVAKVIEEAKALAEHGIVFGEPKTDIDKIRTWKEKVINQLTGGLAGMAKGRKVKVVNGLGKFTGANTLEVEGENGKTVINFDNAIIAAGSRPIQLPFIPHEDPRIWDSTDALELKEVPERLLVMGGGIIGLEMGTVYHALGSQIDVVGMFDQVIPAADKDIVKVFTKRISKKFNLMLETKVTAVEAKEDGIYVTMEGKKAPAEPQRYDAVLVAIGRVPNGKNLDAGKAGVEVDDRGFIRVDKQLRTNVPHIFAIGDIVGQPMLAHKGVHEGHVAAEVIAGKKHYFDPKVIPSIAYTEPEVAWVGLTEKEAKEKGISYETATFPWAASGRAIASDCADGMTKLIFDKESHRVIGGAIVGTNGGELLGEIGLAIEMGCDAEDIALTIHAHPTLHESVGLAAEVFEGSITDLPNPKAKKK
T2 sequence (P0A9P0 2-474 E205A): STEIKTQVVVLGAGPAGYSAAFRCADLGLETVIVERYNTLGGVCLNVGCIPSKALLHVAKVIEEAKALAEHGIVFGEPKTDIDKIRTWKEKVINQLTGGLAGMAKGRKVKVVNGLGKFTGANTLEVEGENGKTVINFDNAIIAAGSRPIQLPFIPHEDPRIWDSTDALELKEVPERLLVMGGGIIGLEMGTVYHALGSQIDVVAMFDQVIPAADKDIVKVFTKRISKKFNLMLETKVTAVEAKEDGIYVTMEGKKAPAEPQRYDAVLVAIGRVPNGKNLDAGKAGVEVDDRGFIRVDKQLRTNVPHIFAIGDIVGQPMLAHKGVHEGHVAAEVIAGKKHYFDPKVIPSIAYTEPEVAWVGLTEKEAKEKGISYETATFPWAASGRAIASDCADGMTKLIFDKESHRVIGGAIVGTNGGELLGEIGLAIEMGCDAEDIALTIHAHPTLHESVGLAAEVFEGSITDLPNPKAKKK
T7 sequence (P0A9P0 2-474): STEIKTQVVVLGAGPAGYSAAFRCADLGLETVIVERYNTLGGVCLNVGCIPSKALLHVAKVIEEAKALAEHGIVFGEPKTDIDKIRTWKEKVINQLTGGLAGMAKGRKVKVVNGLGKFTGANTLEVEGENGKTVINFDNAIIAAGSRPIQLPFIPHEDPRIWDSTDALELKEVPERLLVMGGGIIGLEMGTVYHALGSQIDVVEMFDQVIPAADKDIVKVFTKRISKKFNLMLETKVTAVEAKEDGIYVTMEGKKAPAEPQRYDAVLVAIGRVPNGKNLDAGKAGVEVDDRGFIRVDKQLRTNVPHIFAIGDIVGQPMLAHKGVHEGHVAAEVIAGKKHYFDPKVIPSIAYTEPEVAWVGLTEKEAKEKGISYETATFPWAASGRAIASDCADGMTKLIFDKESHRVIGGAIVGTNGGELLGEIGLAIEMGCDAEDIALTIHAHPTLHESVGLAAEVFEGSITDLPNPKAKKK

Row | SMILES | Km ([1]; other substrates at 6 to 10 times their KM) [µM] | Km [2] [µM] | Km [3] [µM] | Km [4] [µM] | Km [1, 8] [µM] | Km [5] [µM] | Km [6] [µM] | Km ([7]; 4 mM dihydrolipoamide) [µM] | Km [7] [µM]
1 | O=C(O)C[C@H](O)C(=O)O [L-malate] | 630 ± 40 |  |  |  |  |  |  |  | 
2 | NC(=O)c1ccc[n+]([C@@H]2O[C@H](COP(=O)(O)OP(=O)(O)OC[C@H]3O[C@@H](n4cnc5c(N)ncnc54)[C@H](OP(=O)(O)O)[C@@H]3O)[C@@H](O)[C@H]2O)c1 [NADP^+] |  | 2480 ± 690 | 3480 ± 1030 | 91 ± 10 | 3600 ± 400 | 13 | 16 ± 1 |  | 
3 | NC(=O)c1ccc[n+]([C@@H]2O[C@H](COP(=O)(O)OP(=O)(O)OC[C@H]3O[C@@H](n4cnc5c(N)ncnc54)[C@H](O)[C@@H]3O)[C@@H](O)[C@H]2O)c1 [NAD^+] |  | 6350 ± 380 | 9490 ± 1820 | 1500 ± 200 | 100 ± 20 | 270 ± 30 | 270 ± 30 | 440 ± 60 | 
4 | NC(=O)CCCC[C@@H](S)CCS [dihydrolipoamide] |  |  |  |  |  |  |  |  | 180 ± 20

Source: publication PMC8406311, “Change in Cofactor Specificity of Oxidoreductases by Adaptive Evolution of an Escherichia coli NADPH-Auxotrophic Strain” (mBio, 2021)
